Reference: ChEMBL document CHEMBL4346705, “(±)-trans-Dihydronarciclasine and (±)-trans-dihydrolycoricidine analogues modified in their ring A: Evaluation of their anticancer activity and a SAR study” (2019)

Legend:
Type in all cases: functional
[1] = test system: CCRF-CEM; test: Cytotoxicity against human CCRF-CEM cells assessed as growth inhibition after 48 hrs by sulforhodamine B assay
[2] = test system: HL-60(TB); test: Cytotoxicity against human HL-60(TB) cells assessed as growth inhibition after 48 hrs by sulforhodamine B assay; settings: HL-60, 48 h
[3] = test system: RPMI-8226; test: Cytotoxicity against human RPMI8226 cells assessed as growth inhibition after 48 hrs by sulforhodamine B assay; settings: RPMI-8226, 48 h
[4] = test system: HOP-62; test: Cytotoxicity against human HOP62 cells assessed as growth inhibition after 48 hrs by sulforhodamine B assay; settings: HOP-62, 48 h; for CC50: read-out: LC50 (the source's name)
[5] = test system: HOP-92; test: Cytotoxicity against human HOP92 cells assessed as growth inhibition after 48 hrs by sulforhodamine B assay; settings: HOP-92, 48 h
[6] = test system: NCI-H23; test: Cytotoxicity against human NCI-H23 cells assessed as growth inhibition after 48 hrs by sulforhodamine B assay; settings: NCI-H23, 48 h; for CC50: read-out: LC50 (the source's name)
[7] = test system: NCI-H522; test: Cytotoxicity against human NCI-H522 cells assessed as growth inhibition after 48 hrs by sulforhodamine B assay; settings: NCI-H522, 48 h
[8] = test system: COLO 205; test: Cytotoxicity against human COLO205 cells assessed as growth inhibition after 48 hrs by sulforhodamine B assay; settings: COLO 205, 48 h
[9] = test system: HCC 2998; test: Cytotoxicity against human HCC2998 cells assessed as growth inhibition after 48 hrs by sulforhodamine B assay; settings: HCC 2998, 48 h
[10] = test system: HT-29; test: Cytotoxicity against human HT-29 cells assessed as growth inhibition after 48 hrs by sulforhodamine B assay; settings: HT-29, 48 h
[11] = test system: SW-620; test: Cytotoxicity against human SW620 cells assessed as growth inhibition after 48 hrs by sulforhodamine B assay; settings: SW-620, 48 h
[12] = test system: SF-295; test: Cytotoxicity against human SF295 cells assessed as growth inhibition after 48 hrs by sulforhodamine B assay; settings: SF-295, 48 h; for CC50: read-out: LC50 (the source's name)
[13] = test system: SF-539; test: Cytotoxicity against human SF539 cells assessed as growth inhibition after 48 hrs by sulforhodamine B assay; settings: SF-539, 48 h
[14] = test system: U-251; test: Cytotoxicity against human U251 cells assessed as growth inhibition after 48 hrs by sulforhodamine B assay; settings: U-251, 48 h
[15] = test system: LOX IMVI; test: Cytotoxicity against human LOXIMVI cells assessed as growth inhibition after 48 hrs by sulforhodamine B assay
[16] = test system: SK-MEL-2; test: Cytotoxicity against human SK-MEL-2 cells assessed as growth inhibition after 48 hrs by sulforhodamine B assay; settings: SK-MEL-2, 48 h
[17] = test system: SK-MEL-5; test: Cytotoxicity against human SK-MEL-5 cells assessed as growth inhibition after 48 hrs by sulforhodamine B assay; settings: SK-MEL-5, 48 h; for CC50: read-out: LC50 (the source's name)
[18] = test system: UACC-257; test: Cytotoxicity against human UACC257 cells assessed as growth inhibition after 48 hrs by sulforhodamine B assay; settings: UACC-257, 48 h
[19] = test system: UACC-62; test: Cytotoxicity against human UACC62 cells assessed as growth inhibition after 48 hrs by sulforhodamine B assay; settings: UACC-62, 48 h
[20] = test system: IGROV-1; test: Cytotoxicity against human IGROV1 cells assessed as growth inhibition after 48 hrs by sulforhodamine B assay; settings: IGROV-1, 48 h
[21] = test system: OVCAR-3; test: Cytotoxicity against human OVCAR3 cells assessed as growth inhibition after 48 hrs by sulforhodamine B assay; settings: OVCAR-3, 48 h
[22] = test system: OVCAR-4; test: Cytotoxicity against human OVCAR4 cells assessed as growth inhibition after 48 hrs by sulforhodamine B assay; settings: OVCAR-4, 48 h
[23] = test system: OVCAR-5; test: Cytotoxicity against human OVCAR5 cells assessed as growth inhibition after 48 hrs by sulforhodamine B assay; settings: OVCAR-5, 48 h
[24] = test system: NCI/ADR-RES; test: Cytotoxicity against human NCI-ADR-RES cells assessed as growth inhibition after 48 hrs by sulforhodamine B assay; settings: for CC50: read-out: LC50 (the source's name)
[25] = test system: SK-OV-3; test: Cytotoxicity against human SKOV3 cells assessed as growth inhibition after 48 hrs by sulforhodamine B assay; settings: SK-OV-3, 48 h; for CC50: read-out: LC50 (the source's name)
[26] = test system: CAKI-1; test: Cytotoxicity against human Caki1 cells assessed as growth inhibition after 48 hrs by sulforhodamine B assay; settings: CAKI-1, 48 h; for CC50: read-out: LC50 (the source's name)
[27] = test system: SN12C; test: Cytotoxicity against human SN12C cells assessed as growth inhibition after 48 hrs by sulforhodamine B assay; settings: for CC50: read-out: LC50 (the source's name)
[28] = test system: TK-10; test: Cytotoxicity against human TK10 cells assessed as growth inhibition after 48 hrs by sulforhodamine B assay; settings: TK-10, 48 h
[29] = test system: UO-31; test: Cytotoxicity against human UO31 cells assessed as growth inhibition after 48 hrs by sulforhodamine B assay; settings: UO-31, 48 h
[30] = test system: BT-549; test: Cytotoxicity against human BT549 cells assessed as growth inhibition after 48 hrs by sulforhodamine B assay; settings: BT-549, 48 h
[31] = test system: T47D; test: Cytotoxicity against human T47D cells assessed as growth inhibition after 48 hrs by sulforhodamine B assay
[32] = test system: MDA-MB-468; test: Cytotoxicity against human MDA-MB-468 cells assessed as growth inhibition after 48 hrs by sulforhodamine B assay; settings: MDA-MB-468, 48 h; for CC50: read-out: LC50 (the source's name)

SMILES: O=C1NC2C(CC(O)C(O)C2O)c2cc3c(c(O)c21)OCO3 (racemic)
- GI50 [1]: 52.9 nM
- TGI [1]: 2150 nM
- GI50 [2]: 60.1 nM
- TGI [2]: 260 nM
- GI50 [3]: 229 nM
- TGI [3]: 630 nM
- GI50 [4]: 56.8 nM
- TGI [4]: 420 nM
- CC50 [4]: > 100000 nM
- GI50 [5]: 49 nM
- TGI [5]: 570 nM
- GI50 [6]: 74.4 nM
- TGI [6]: 520 nM
- CC50 [6]: > 100000 nM
- GI50 [7]: 46.7 nM
- TGI [7]: 310 nM
- GI50 [8]: 50.5 nM
- TGI [8]: 210 nM
- GI50 [9]: 57.2 nM
- TGI [9]: 330 nM
- GI50 [10]: 89.6 nM
- TGI [10]: 1000 nM
- GI50 [11]: 54.5 nM
- TGI [11]: 810 nM
- GI50 [12]: 115 nM
- TGI [12]: 770 nM
- CC50 [12]: > 100000 nM
- GI50 [13]: 81.9 nM
- TGI [13]: 460 nM
- GI50 [14]: 45.2 nM
- TGI [14]: 1010 nM
- GI50 [15]: 33.6 nM
- TGI [15]: 170 nM
- GI50 [16]: 56.1 nM
- TGI [16]: 250 nM
- GI50 [17]: 71.9 nM
- TGI [17]: 360 nM
- CC50 [17]: 2220 nM
- GI50 [18]: 68.7 nM
- TGI [18]: 540 nM
- GI50 [19]: 136 nM
- TGI [19]: 630 nM
- GI50 [20]: 163 nM
- TGI [20]: 1110 nM
- GI50 [21]: 93.3 nM
- TGI [21]: 480 nM
- GI50 [22]: 55.6 nM
- TGI [22]: 480 nM
- GI50 [23]: 170 nM
- TGI [23]: 1050 nM
- GI50 [24]: 178 nM
- TGI [24]: 1560 nM
- CC50 [24]: > 100000 nM
- GI50 [25]: 94.9 nM
- TGI [25]: 1040 nM
- CC50 [25]: > 100000 nM
- GI50 [26]: 91.3 nM
- TGI [26]: 690 nM
- CC50 [26]: > 100000 nM
- GI50 [27]: 69.3 nM
- TGI [27]: 800 nM
- CC50 [27]: > 100000 nM
- GI50 [28]: 221 nM
- TGI [28]: 1680 nM
- GI50 [29]: 100 nM
- TGI [29]: 1090 nM
- GI50 [30]: 178 nM
- TGI [30]: 820 nM
- GI50 [31]: 52.9 nM
- TGI [31]: 670 nM
- GI50 [32]: 32 nM
- TGI [32]: 190 nM
- CC50 [32]: 6590 nM

SMILES: O=C1NC2C(CC(O)C(O)C2O)c2cc3c(c(O)c21)OCCO3 (racemic)
- GI50 [1]: 73.7 nM
- LC50 (concentration giving 50% net cell kill) [1]: > 100000 nM
- TGI [1]: 1830 nM
- GI50 [2]: 166 nM
- LC50 [2]: > 100000 nM
- TGI [2]: 590 nM
- GI50 [3]: 265 nM
- LC50 [3]: > 100000 nM
- TGI [3]: 1140 nM
- GI50 [4]: 255 nM
- TGI [4]: 910 nM
- CC50 [4]: 7270 nM
- GI50 [5]: 110 nM
- LC50 [5]: > 100000 nM
- TGI [5]: 1010 nM
- GI50 [6]: 214 nM
- TGI [6]: 870 nM
- CC50 [6]: > 100000 nM
- GI50 [7]: 147 nM
- LC50 [7]: 7620 nM
- TGI [7]: 730 nM
- GI50 [8]: 176 nM
- TGI [8]: 410 nM
- GI50 [9]: 222 nM
- LC50 (concentration killing 50% of cells) [9]: 6310 nM
- TGI [9]: 730 nM
- GI50 [10]: 299 nM
- LC50 (concentration causing 50% net cell kill) [10]: 96400 nM
- TGI [10]: 1330 nM
- GI50 [11]: 222 nM
- LC50 [11]: > 100000 nM
- TGI [11]: 1220 nM
- GI50 [12]: 357 nM
- TGI [12]: 2640 nM
- CC50 [12]: > 100000 nM
- GI50 [13]: 228 nM
- LC50 [13]: 12700 nM
- TGI [13]: 740 nM
- GI50 [14]: 243 nM
- LC50 [14]: > 100000 nM
- TGI [14]: 14500 nM
- GI50 [15]: 180 nM
- LC50 (concentration killing 50% of cells) [15]: 3580 nM
- TGI [15]: 530 nM
- GI50 [16]: 245 nM
- TGI [16]: 930 nM
- GI50 [17]: 181 nM
- TGI [17]: 470 nM
- CC50 [17]: 2220 nM
- GI50 [18]: 289 nM
- LC50 [18]: > 100000 nM
- TGI [18]: 1470 nM
- GI50 [19]: 261 nM
- LC50 [19]: 13000 nM
- TGI [19]: 1380 nM
- GI50 [20]: 343 nM
- LC50 [20]: > 100000 nM
- TGI [20]: 2680 nM
- GI50 [21]: 280 nM
- LC50 [21]: > 100000 nM
- TGI [21]: 960 nM
- GI50 [22]: 209 nM
- LC50 (concentration causing 50% net cell kill) [22]: > 100000 nM
- TGI [22]: 820 nM
- GI50 [23]: 361 nM
- LC50 [23]: > 100000 nM
- TGI [23]: 2860 nM
- GI50 [24]: 596 nM
- TGI [24]: 5850 nM
- CC50 [24]: > 100000 nM
- GI50 [25]: 496 nM
- TGI [25]: 4030 nM
- CC50 [25]: > 100000 nM
- GI50 [26]: 586 nM
- TGI [26]: 5470 nM
- CC50 [26]: > 100000 nM
- GI50 [27]: 141 nM
- TGI [27]: 890 nM
- CC50 [27]: > 100000 nM
- GI50 [28]: 563 nM
- LC50 [28]: > 100000 nM
- TGI [28]: 3870 nM
- GI50 [29]: 316 nM
- LC50 [29]: > 100000 nM
- TGI [29]: 2460 nM
- GI50 [30]: 260 nM
- LC50 (concentration killing 50% of cells) [30]: > 100000 nM
- TGI [30]: 870 nM
- GI50 [31]: 143 nM
- LC50 (concentration killing 50% of cells) [31]: > 100000 nM
- TGI [31]: 900 nM
- GI50 [32]: 68.1 nM
- TGI [32]: 360 nM
- CC50 [32]: 2780 nM
